# Source: patent EP1953147A1, “HETEROCYCLIC COMPOUND AND MEDICINAL APPLICATION THEREOF” (priority 2005, dated 2007)
# Counter-ions that a name gives are not always drawn.
# Test system: ΔG/SEAP/HCV E1E2
# Assay: Effect of test substance on cell infection with HCV pseudotype virus (SEAP reporter assay in HepG2 cells)
# Type: cell-based
# Conditions: Hepatitis C virus
row,SMILES,IC50 [nM]
1,"Cc1cccc(-c2nn(-c3cc(N4CC[C@H](O)C4)ccc3C(F)(F)F)c(=O)c3c2CCC3)c1 [Example 64, 2-[5-((S)-3-hydroxy-pyrrolidin-1-yl)-2-trifluoromethyl-phenyl]-4-m-tolyl-2,5,6,7-tetrahydro-cyclopenta[d]pyridazin-1-one]",< 100
2,"O=c1c2c(c(-c3ccccc3Br)nn1-c1cc(N3CC[C@H](O)C3)ccc1C(F)(F)F)CCC2 [Example 104, 4-(2-bromo-phenyl)-2-[5-((S)-3-hydroxy-pyrrolidin-1-yl)-2-trifluoromethyl-phenyl]-2,5,6,7-tetrahydro-cyclopenta[d]pyridazin-1-one]",100 to 10000
3,"COc1cc(OC)cc(-c2nn(-c3cc(NCCCN(C)C)ccc3C(F)(F)F)c(=O)c3c2CCC3)c1 [Example 128, 4-(3,5-dimethoxy-phenyl)-2-[5-(3-dimethylamino-propylamino)-2-trifluoromethyl-phenyl]-2,5,6,7-tetrahydro-cyclopenta[d]pyridazin-1-one]",< 100
4,"COc1cccc(-c2nn(-c3cc(N4CC[C@H](O)C4)ccc3C(F)(F)F)c(=O)c3c2CCN3)c1 [Example 43, 6-[5-((S)-3-hydroxy-pyrrolidin-1-yl)-2-trifluoromethyl-phenyl]-4-(3-methoxy-phenyl)-1,2,3,6-tetrahydro-pyrrolo[2,3-d]pyridazin-7-one]",< 100
5,"COc1cc(OC)cc(-c2nn(-c3cc(N)ccc3C(F)(F)F)c(=O)c3c2CCN3CCO)c1 [Example 1-41, 6-(5-amino-2-trifluoromethyl-phenyl)-4-(3,5-dimethoxy-phenyl)-1-(2-hydroxy-ethyl)-1,2,3,6-tetrahydro-pyrrolo[2,3-d]pyridazin-7-one]",< 100
6,"COc1cc(OC)cc(-c2nn(-c3cc(N4CC[C@@H](O)C4)ccc3C(F)(F)F)c(=O)c3c2CCN3)c1 [Example 24, 4-(3,5-dimethoxy-phenyl)-6-[5-((R)-3-hydroxy-pyrrolidin-1-yl)-2-trifluoromethyl-phenyl]-1,2,3,6-tetrahydro-pyrrolo[2,3-d]pyridazin-7-one]",< 100
7,"COc1cc(OC)cc(-c2nn(-c3cc(NCCC(=O)O)ccc3C(F)(F)F)c(=O)c3c2CCC3)c1 [Example 122, 3-{3-[4-(3,5-dimethoxy-phenyl)-1-oxo-1,5,6,7-tetrahydro-cyclopenta[d]pyridazin-2-yl]-4-trifluoromethyl-phenylamino}-propionic acid]",< 100
8,"NC(=O)c1ccc(-c2nn(-c3cc(N4CC[C@H](O)C4)ccc3C(F)(F)F)c(=O)c3c2CCC3)cc1 [Example 99, 4-{3-[5-((S)-3-hydroxy-pyrrolidin-1-yl)-2-trifluoromethyl-phenyl]-4-oxo-4,5,6,7-tetrahydro-3H-cyclopenta[d]pyridazin-1-yl}-benzamide]",100 to 10000
9,"COc1cc(OC)cc(-c2nn(-c3cc(C)ccc3C(F)(F)F)c(=O)c3c2CCC3)c1 [Example 88, 4-(3,5-dimethoxy-phenyl)-2-(5-methyl-2-trifluoromethyl-phenyl)-2,5,6,7-tetrahydro-cyclopenta[d]pyridazin-1-one]",< 100
10,"COc1cc(OC)cc(-c2nn(-c3cc(N4CC[C@@H](O)C4)ccc3C(F)(F)F)c(=O)c3c2CCC3)c1 [Example 21, 4-(3,5-dimethoxy-phenyl)-2-[5-((R)-3-hydroxy-pyrrolidin-1-yl)-2-trifluoromethyl-phenyl]-2,5,6,7-tetrahydro-cyclopenta[d]pyridazin-1-one]",< 100
11,"COc1cc(OC)cc(-c2nn(-c3cccc(N4CC[C@H](O)C4)c3)c(=O)c3c2CCN3)c1 [Example 52, 4-(3,5-dimethoxy-phenyl)-6-[3-((S)-3-hydroxy-pyrrolidin-1-yl)-phenyl]-1,2,3,6-tetrahydro-pyrrolo[2,3-d]pyridazin-7-one]",100 to 10000
12,"COc1cc(OC)cc(-c2nn(-c3cc(-c4cccnn4)ccc3C(F)(F)F)c(=O)c3c2CCN3)c1 [Example 17, 4-(3,5-dimethoxy-phenyl)-6-(5-pyridazin-3-yl-2-trifluoromethyl-phenyl)-1,2,3,6-tetrahydro-pyrrolo[2,3-d]pyridazin-7-one]",< 100
13,"COc1cc(OC)cc(-c2nn(-c3cc(NCCCN)ccc3C(F)(F)F)c(=O)c3c2CCC3)c1 [Example 127, 2-[5-(3-amino-propylamino)-2-trifluoromethylphenyl]-4-(3,5-dimethoxy-phenyl)-2,5,6,7-tetrahydro-cyclopenta[d]pyridazin-1-one hydrochloride]",< 100
14,"COc1cc(OC)cc(-c2nn(-c3cc(N4CC[C@H](O)C4)ccc3C(F)(F)F)c(=O)c3c2SCC3)c1 [Example 1-37, 7-(3,5-dimethoxy-phenyl)-5-[5-((S)-3-hydroxy-pyrrolidin-1-yl)-2-trifluoromethyl-phenyl]-3,5-dihydro-2H-thieno[2,3-d]pyridazin-4-one]",< 100
15,"O=c1c2c(c(-c3ccccn3)nn1-c1cc(N3CC[C@H](O)C3)ccc1C(F)(F)F)CCC2 [Example 110, 2-[5-((S)-3-hydroxy-pyrrolidin-1-yl)-2-trifluoromethyl-phenyl]-4-pyridin-2-yl-2,5,6,7-tetrahydro-cyclopenta[d]pyridazin-1-one]",100 to 10000
16,"CNC(=O)CN1CCc2c(-c3cc(OC)cc(OC)c3)nn(-c3cc(N4CC[C@H](O)C4)ccc3C(F)(F)F)c(=O)c21 [Example 31, 2-{4-(3,5-dimethoxy-phenyl)-6-[5-((S)-3-hydroxy-pyrrolidin-1-yl)-2-trifluoromethyl-phenyl]-7-oxo-2,3,6,7-tetrahydro-pyrrolo[2,3-d]pyridazin-1-yl}-N-methyl-acetamide]",< 100
17,"COc1cc(OC)cc(-c2nn(-c3cc(NCCCC(=O)O)ccc3C(F)(F)F)c(=O)c3c2CCC3)c1 [Example 151, 4-{3-[4-(3,5-dimethoxy-phenyl)-1-oxo-1,5,6,7-tetrahydro-cyclopenta[d]pyridazin-2-yl]-4-trifluoromethyl-phenylamino}-butyric acid]",< 100
18,"CCN1CCc2c(-c3cc(OC)cc(OC)c3)nn(-c3cc(N4CC[C@H](O)C4)ccc3C(F)(F)F)c(=O)c21 [Example 55, 4-(3,5-dimethoxy-phenyl)-1-ethyl-6-[5-((S)-3-hydroxy-pyrrolidin-1-yl)-2-trifluoromethyl-phenyl]-1,2,3,6-tetrahydro-pyrrolo[2,3-d]pyridazin-7-one]",< 100
19,"COc1cc(OC)cc(-c2nn(-c3cc(F)ccc3C(F)(F)F)c(=O)c3c2CCC3)c1 [Example 1-12, 4-(3,5-dimethoxy-phenyl)-2-(5-fluoro-2-trifluoromethylphenyl)-2,5,6,7-tetrahydro-cyclopenta[d]pyridazin-1-one]",100 to 10000
20,"COc1cc(OC)cc(-c2nn(-c3cc(N4CC(CO)C4)ccc3C(F)(F)F)c(=O)c3c2CCN3)c1 [Example 1-42, 4-(3,5-dimethoxy-phenyl)-6-[5-(3-hydroxymethyl-azetidin-1-yl)-2-trifluoromethyl-phenyl]-1,2,3,6-tetrahydro-pyrrolo[2,3-d]pyridazin-7-one]",< 100
21,"COc1cc(OC)cc(-c2nn(-c3cc(N4CC[C@H](O)C4)ccc3C(F)(F)F)c(=O)c3c2CCN3CC(=O)NCCNC(C)=O)c1 [Example 39, N-(2-acetylamino-ethyl)-2-{4-(3,5-dimethoxy-phenyl)-6-[5-((S)-3-hydroxy-pyrrolidin-1-yl)-2-trifluoromethyl-phenyl]-7-oxo-2,3,6,7-tetrahydro-pyrrolo[2,3-d]pyridazin-1-yl}-acetamide]",< 100
22,"COc1cc(OC)cc(-c2nn(-c3cc(NC4CC4)ccc3C(F)(F)F)c(=O)c3c2CCC3)c1 [Example 140, 2-(5-cyclopropylamino-2-trifluoromethyl-phenyl)-4-(3,5-dimethoxy-phenyl)-2,5,6,7-tetrahydro-cyclopenta[d]pyridazin-1-one]",< 100
23,"Cc1cc(C)cc(-c2nn(-c3cc(N4CC[C@H](O)C4)ccc3C(F)(F)F)c(=O)c3c2CCN3)c1 [Example 11, 4-(3,5-dimethyl-phenyl)-6-[5-((S)-3-hydroxy-pyrrolidin-1-yl)-2-trifluoromethyl-phenyl]-1,2,3,6-tetrahydro-pyrrolo[2,3-d]pyridazin-7-one]",< 100
24,"COc1cc(OC)cc(-c2nn(-c3cc(N4CC[C@H](O)C4)ccc3C(F)(F)F)c(=O)c3c2CCCN3CCO)c1 [Example 1-39, 5-(3,5-dimethoxy-phenyl)-1-(2-hydroxy-ethyl)-7-[5-((S)-3-hydroxy-pyrrolidin-1-yl)-2-trifluoromethylphenyl]-1,3,4,7-tetrahydro-2H-pyrido[2,3-d]pyridazin-8-one]",< 100
25,"COc1cc(C)cc(-c2nn(-c3cc(N4CC[C@H](O)C4)ccc3C(F)(F)F)c(=O)c3c2CC(C)N3)c1 (stereo partly drawn) [Example 16, 6-[5-((S)-3-hydroxy-pyrrolidin-1-yl)-2-trifluoromethyl-phenyl]-4-(3-methoxy-5-methyl-phenyl)-2-methyl-1,2,3,6-tetrahydro-pyrrolo[2,3-d]pyridazin-7-one]",< 100
26,"O=c1c2c(c(-c3cccc(F)c3)nn1-c1cc(N3CC[C@H](O)C3)ccc1C(F)(F)F)CCC2 [Example 65, 4-(3-fluoro-phenyl)-2-[5-((S)-3-hydroxy-pyrrolidin-1-yl)-2-trifluoromethyl-phenyl]-2,5,6,7-tetrahydro-cyclopenta[d]pyridazin-1-one]",< 100
27,"COC(=O)CNc1ccc(C(F)(F)F)c(-n2nc(-c3cc(OC)cc(OC)c3)c3c(c2=O)CCC3)c1 [Example 126, {3-[4-(3,5-dimethoxy-phenyl)-1-oxo-1,5,6,7-tetrahydro-cyclopenta[d]pyridazin-2-yl]-4-trifluoromethyl-phenylamino}-acetic acid methyl ester]",< 100
28,"CCNC(=O)CN1CCc2c(-c3cc(OC)cc(OC)c3)nn(-c3cc(N4CC[C@H](O)C4)ccc3C(F)(F)F)c(=O)c21 [Example 33, 2-{4-(3,5-dimethoxy-phenyl)-6-[5-((S)-3-hydroxy-pyrrolidin-1-yl)-2-trifluoromethyl-phenyl]-7-oxo-2,3,6,7-tetrahydro-pyrrolo[2,3-d]pyridazin-1-yl}-N-ethyl-acetamide]",< 100
29,"COc1cc(OC)cc(-c2nn(-c3cc(NCC(CO)CO)ccc3C(F)(F)F)c(=O)c3c2CCN3CCO)c1 [Example 1-43, 4-(3,5-dimethoxy-phenyl)-1-(2-hydroxy-ethyl)-6-[5-(3-hydroxy-2-hydroxymethyl-propylamino)-2-trifluoromethyl-phenyl]-1,2,3,6-tetrahydro-pyrrolo[2,3-d]pyridazin-7-one]",< 100
